Measurements as given in PMC3447774, “Genes Encoding Cher-TPR Fusion Proteins Are Predominantly Found in Gene Clusters Encoding Chemosensory Pathways with Alternative Cellular Functions” (PLoS ONE, 2012).

Experiments:
Assay in all cases: isothermal titration calorimetry
Type in all cases: binding
WspC-Ppmiddle = molecular target: T1, WspC-Ppmiddle (Pseudomonas putida, UniProt Q88MS8)
T1 construct: amino acids 1-355, CheR domain plus linker, lacks TPR domain
Excerpt: isothermal titration calorimetry on WspC-Ppmiddle

WspC-Ppshort = molecular target: T2, WspC-Ppshort (Pseudomonas putida, UniProt Q88MS8)
T2 construct: amino acids 1-240, CheR domain only, lacks linker and TPR domain
Excerpt: isothermal titration calorimetry on WspC-Ppshort

WspC-Pp = molecular target: T3, WspC-Pp (Pseudomonas putida, UniProt Q88MS8)
T3 construct: full-length CheR-linker-TPR protein; monomer
Excerpt: isothermal titration calorimetry on WspC-Pp

T3 sequence (Q88MS8 whole entry): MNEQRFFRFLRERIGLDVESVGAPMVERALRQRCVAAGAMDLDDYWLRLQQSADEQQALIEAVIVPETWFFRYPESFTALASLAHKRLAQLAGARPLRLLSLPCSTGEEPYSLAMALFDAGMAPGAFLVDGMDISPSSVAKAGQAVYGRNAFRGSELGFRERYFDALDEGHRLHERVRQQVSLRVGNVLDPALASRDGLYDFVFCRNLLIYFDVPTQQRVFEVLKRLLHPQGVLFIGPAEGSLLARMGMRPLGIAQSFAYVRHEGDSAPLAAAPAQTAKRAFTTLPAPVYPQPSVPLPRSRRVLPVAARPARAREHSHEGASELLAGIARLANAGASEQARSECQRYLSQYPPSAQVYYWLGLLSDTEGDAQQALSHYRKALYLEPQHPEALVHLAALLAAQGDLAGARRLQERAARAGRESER
T2 sequence (Q88MS8 1-283): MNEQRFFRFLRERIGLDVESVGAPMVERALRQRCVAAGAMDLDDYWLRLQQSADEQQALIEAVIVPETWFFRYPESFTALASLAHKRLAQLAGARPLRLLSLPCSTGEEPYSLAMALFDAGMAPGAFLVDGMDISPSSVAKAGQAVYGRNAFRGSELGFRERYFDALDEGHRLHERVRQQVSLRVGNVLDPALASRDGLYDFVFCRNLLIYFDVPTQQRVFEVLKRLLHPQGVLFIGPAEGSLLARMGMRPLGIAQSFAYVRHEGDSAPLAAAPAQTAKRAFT
T1 sequence (Q88MS8 1-355): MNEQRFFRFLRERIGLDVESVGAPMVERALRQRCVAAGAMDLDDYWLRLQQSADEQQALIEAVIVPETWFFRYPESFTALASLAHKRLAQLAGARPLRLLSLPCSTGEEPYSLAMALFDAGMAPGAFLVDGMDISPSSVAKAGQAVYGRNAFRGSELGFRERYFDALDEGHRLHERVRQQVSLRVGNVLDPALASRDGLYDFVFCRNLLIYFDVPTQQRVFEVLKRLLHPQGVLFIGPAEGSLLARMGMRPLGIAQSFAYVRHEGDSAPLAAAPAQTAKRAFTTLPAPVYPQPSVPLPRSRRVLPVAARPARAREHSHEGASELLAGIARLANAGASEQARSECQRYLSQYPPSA

| SMILES | Kd (WspC-Ppmiddle) [µM] | Kd (WspC-Ppshort) [µM] | Kd (WspC-Pp) [µM] |
| --- | --- | --- | --- |
| C[S+](CC[C@H](N)C(=O)O)C[C@H]1O[C@@H](n2cnc3c(N)ncnc32)[C@H](O)[C@@H]1O (stereo partly drawn) [S-adenosylmethionine] | 35 ± 2 | 41 ± 4 | 43 ± 2 |
| Nc1ncnc2c1ncn2[C@@H]1O[C@H](CSCC[C@H](N)C(=O)O)[C@@H](O)[C@H]1O [S-adenosylhomocysteine] | 1.6 ± 0.1 | 2 ± 0.1 | 1.7 ± 0.1 |
